From patent EP4035684A1, “AFFINITY ILLUDOFULVENE CONJUGATES” (AF Chemical LLC, priority 2019, dated 2022)
Like-named read-outs stand apart in the source and are kept apart here. Where a SMILES comes first, the peptide text is derived from it. [ ]: non-standard residue; d: D form. The star is where a group is joined. Dolaproine = CO[C@@H]([C@@H]1CCCN1)[C@@H](C)C(=O)O; Dil = CC[C@H](C)[C@H](NC)[C@@H](CC(=O)O)OC; X1 = C[C@@H](N*)[C@@H](O)c1ccccc1; NMeV = CN[C@H](C(=O)O)C(C)C

Experiments:
[1] = test system: NCI 60 cell line panel; assay: NCI DTP 60 cell line screen assay; details: for Cytotoxicity: ability to actually kill tumor cells versus only inhibiting growth
Text: An ADC is engulfed by a tumor cell, transported to the endosomes (pH < 6.0) and then into the lysozomes (pH < 4). […] 4) Cancer cells can become resistant to various toxins and drugs through the development of what is termed multi-drug resistance. This process is known to occur through several different mechanisms.

[2] = test system: MV522 cell line; assay: cells; assay type: cell-based
[3] = test system: 8392B cell line; assay: Two hour toxicity: inhibition of DNA synthesis activity, nontarget cell line; assay type: cell-based
[4] = test system: 8392B cell line; assay: cells; assay type: cell-based; details: read-out: Mean IC50 value (nM) ± SD, N=3 unless otherwise indicated, 8392B Nontarget Cell Line, 48 hr exposure, 8392B nontarget cell line, mean ± SD, N=3 unless otherwise indicated
[5] = read-out: Mean IC50 value (nM) ± SD, N=3 unless otherwise indicated, MV522 Target Cell Line, 2 hr exposure, MV522 target cell line, 2 hr exposure, mean ± SD, N=3 unless otherwise indicated
[6] = read-out: Mean IC50 value (nM) ± SD, N=3 unless otherwise indicated, 8392B Nontarget Cell Line, 2 hr exposure, 8392B nontarget cell line, 2 hr exposure, mean ± SD, N=3 unless otherwise indicated

Compound	Cytotoxicity [1]	IC50 [3, 6]	further results
COc1cc2cc(c1Cl)N(C)C(=O)C[C@H](OC(=O)[C@H](C)N(C)C(=O)CCS)[C@]1(C)O[C@H]1[C@H](C)[C@@H]1C[C@@](O)(NC(=O)O1)[C@H](OC)/C=C/C=C(\C)C2 [DM1, reference compound]	not cytotoxic and No	–	–
C/C(=C\c1csc(C)n1)[C@@H]1C[C@@H]2O[C@@H]2CCC[C@H](C)[C@H](O)[C@@H](C)C(=O)C(C)(C)[C@@H](O)CC(=O)O1 [Epothilone A, reference compound]	not cytotoxic and No	–	–
CC[C@H](C)[C@@H]([C@@H](CC(=O)N1CCC[C@H]1[C@H](OC)[C@@H](C)C(=O)N[C@H](C)[C@@H](O)c1ccccc1)OC)N(C)C(=O)[C@@H](NC(=O)[C@@H](NC)C(C)C)C(C)C [MMAE, N-methylvaline-valine-dolaisoleuine-dolaproine-norephedrine, reference compound] (H-[NMeV]V[Dil][Dolaproine]-X1)	No	–	MDR Activity [1]: No; MDR Activity ([1]; listed as MMA): not MDR active; Cytotoxicity ([1]; listed as MMA): not cytotoxic
CC1=C(CO)C2=C(C)C3(CC3)[C@@](C)(O)C(=O)C2=C1 [analog 002, (6'R)-6'-hydroxy-3'-(hydroxymethyl)-2',4',6'-trimethylspiro[cyclopropane-1,5'-inden]-7'(6'H)-one]	–	–	IC50 ([2]; MV522, 2 h, read-out: IC50 MV522): 110 nM; IC50 ([3]; 2 hour exposure, nontarget cell line, read-out: IC50 8392B): > 26000 nM
CC1=CC2=C(C)C3(CC3)[C@@](C)(O)/C(=N/O)C2=C1 [analog 224, (R,E)-6'-hydroxy-2',4',6'-trimethylspiro[cyclopropane-1,5 '-inden]-7'(6'H)-one oxime]	–	–	toxicity ([2]; target and nontarget cell line, in words): minimal toxicity
CC(=O)OC[C@]1(C)C=C2C(=O)[C@](C)(O)C3(CC3)C(C)=C2[C@H]1OC(=O)N(C)CCN(C)C(=O)OC(C)(C)C [analog 334, ((2'S,3'R,6'R)-3'-(((2-((tert-butoxycarbonyl)(methyl)amino)ethyl)(methyl)carbamoyl)oxy)-6'-hydroxy-2',4',6'-trimethyl-7'-oxo-2',3',6',7'-tetrahydrospiro[cyclopropane-1,5' - inden]-2' - yl)methylacetate]	cytotoxic	–	–
CC1=C2C(=C[C@@](C)(COS(C)(=O)=O)[C@@H]2O)C(=O)[C@](C)(O)C12CC2 [analog 362, ((2'S,3'R,6'R)-3',6'-dihydroxy-2',4',6'-trimethyl-7'-oxo-2',3',6',7'-tetrahydrospiro[cyclopropane-1,5'-inden]-2'-yl)methyl methanesulfonate]	cytotoxic	–	–
CC(=O)O[C@@H]1C2=C(C)C3(CC3)[C@@](C)(O)C(=O)C2=C[C@@]1(C)CO [analog 371, (2'S,3'R,6'R)-6'-hydroxy-2'-(hydroxymethyl)-2',4',6'-trimethyl-7'-oxo-2',3',6',7'-tetrahydrospiro[cyclopropane-1,5'-inden]-3'-yl acetate]	cytotoxic	–	–
CC1=C2C(=C[C@@](C)(C=O)[C@@H]2O)C(=O)[C@](C)(O)C12CC2 [analog 383, (2'R,3'R,6'R)-3',6'-dihydroxy-2',4',6'-trimethyl-7'-oxo-2',3',6',7'-tetrahydrospiro[cyclopropane-1,5'-indene]-2'-carbaldehyde]	cytotoxic	–	–
CC1=C(CNO)C2=C(C)C3(CC3)[C@@](C)(O)C(=O)C2=C1 [analog 394, (R)-6'-hydroxy-3'-((hydroxyamino)methyl)-2',4',6'-trimethylspiro[cyclopropane-1,5'-inden]-7'(6'H)-one]	cytotoxic	–	–
CC1=C(COCCBr)C2=C(C)C3(CC3)[C@@](C)(O)C(=O)C2=C1 [compound 020]	–	25000 ± 3100 nM	IC50 [2, 5]: 530 ± 140 nM
CC(=O)ON(C(C)=O)c1ccc(C(=O)OC[C@]2(C)C=C3C(=O)[C@](C)(O)C4(CC4)C(C)=C3C2O)cc1 (some centres unmarked) [compound 136]	–	> 6200 nM	–
CC1=C(CSc2nc3ccccc3s2)C2=C(C)C3(CC3)[C@@](C)(O)C(=O)C2=C1 [compound 147]	–	> 76000 nM	IC50 [2, 5]: > 76000 nM
CC1=C(CSc2nc(O)c3nccnc3n2)C2=C(C)C3(CC3)[C@@](C)(O)C(=O)C2=C1 [compound 153]	–	> 90000 nM	–
CC1=C(CSc2nnnn2-c2ccc(O)cc2)C2=C(C)C3(CC3)[C@@](C)(O)C(=O)C2=C1 [compound 154]	–	> 70000 nM	IC50 [2, 5]: > 70000 nM
CC1=C(CCCOC(=O)C(N)CC(C)C)C2=C(C)C3(CC3)[C@@](C)(O)C(=O)C2=C1 (some centres unmarked) [compound 176]	Yes	–	MDR Activity [1]: Yes
CC1=C(CN=[N+]=[N-])C2=C(C)C3(CC3)[C@@](C)(O)C(=O)C2=C1 [compound 193]	–	–	IC50 [4]: > 11000 nM
CC1=C(CCCOC(=O)[C@@H]2CCCN2)C2=C(C)C3(CC3)[C@@](C)(O)C(=O)C2=C1 [compound 196]	–	–	IC50 [4]: > 9200 nM
CC1=C(COc2ccc([N+](=O)[O-])cc2)C2=C(C)C3(CC3)[C@@](C)(O)C(=O)C2=C1 [compound 198]	–	> 8200 nM	IC50 [4]: > 82000 nM
CC1=C(COc2ccccc2)C2=C(C)C3(CC3)[C@@](C)(O)C(=O)C2=C1 [compound 199]	–	> 93000 nM	IC50 [4]: > 9300 nM
CC1=C(CCCNC(=O)[C@@H]2CCCN2)C2=C(C)C3(CC3)[C@@](C)(O)C(=O)C2=C1 [compound 202]	–	> 62000 nM	IC50 [4]: > 6200 nM
CC1=C(CCCOC(=O)[C@@H]2CCCN2C(=O)[C@@H](N)CO)C2=C(C)C3(CC3)[C@@](C)(O)C(=O)C2=C1 [compound 203]	–	–	IC50 [4]: > 5500 nM
CC1=C(CCCOC(=O)[C@@H]2CCCN2C(=O)[C@H](CO)NC(=O)[C@@H](N)CO)C2=C(C)C3(CC3)[C@@](C)(O)C(=O)C2=C1 [compound 209]	–	> 90000 nM	–
CC1=C(COC(=O)CCCCCN2C(=O)C=CC2=O)C2=C(C)C3(CC3)[C@@](C)(O)C(=O)C2=C1 [compound 217]	–	–	IC50 [4]: > 7000 nM
